Laboratory results from US5004690A, “Ascorbic acid intermediates and process enzymes” (Genetech, Inc., priority 1989, dated 1991).
Like-named read-outs stand apart in the source and are kept apart here.

Molecular target: T1, 2,5-DKG reductase (Corynebacterium sp., UniProt P06632)
T1 construct: resuspension in 650 ml Tris buffer containing 2 mg/ml lyozyme to release intracellular proteins; endogenous in cells; host or cells: Corynebacterium sp; ATCC 31090 (enzyme purified in house from the cell paste)
Test: 2,5-DKG reductase assay: kinetic parameters, substrate specificity, cofactor requirements, pH optimum
Assay type: biochemical, Corynebacterium sp. ATCC 31090
Conditions: sodium phosphate buffer 150 mM, pH 6.4, 25° C., enzyme 10 μg, read-out: Michaelis constants (Km)
Description: The following assay conditions were used to determine kinetic parameters: […]

T1 sequence (P06632 whole entry): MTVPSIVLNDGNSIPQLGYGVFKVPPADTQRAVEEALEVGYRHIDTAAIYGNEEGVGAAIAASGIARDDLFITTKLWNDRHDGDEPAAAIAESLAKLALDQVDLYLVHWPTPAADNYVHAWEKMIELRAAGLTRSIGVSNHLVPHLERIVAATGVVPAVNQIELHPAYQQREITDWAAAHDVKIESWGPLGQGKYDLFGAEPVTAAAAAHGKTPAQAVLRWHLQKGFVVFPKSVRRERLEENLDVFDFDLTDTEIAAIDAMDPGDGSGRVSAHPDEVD

O=C(O)C(=O)[C@@H](O)[C@H](O)C(=O)CO [2,5-DKG, 2,5-diketogluconic acid]
Km (2,5-DKG 0.43-43 mM): 15.5 mM

NC(=O)C1=CN([C@@H]2O[C@H](COP(=O)(O)OP(=O)(O)OC[C@H]3O[C@@H](n4cnc5c(N)ncnc54)[C@H](OP(=O)(O)O)[C@@H]3O)[C@@H](O)[C@H]2O)C=CC1 [NADPH]
Km (NADPH 11-300 μM): 0.0337 mM
